Experimental findings from patent publication US9249163B2, “PDE10a inhibitors for the treatment of type II diabetes” (Janssen Pharmaceutica, NV, priority 2013, dated 2016) are described below.

Usually IC50 stands for the concentration that gives 50% inhibition. By Kp is commonly meant tissue or fluid exposure divided by exposure in the circulation.

Data set [1] deals with Rat recombinant PDE10a (rPDE10a) (Rattus norvegicus (Rat), UniProt Q9QYJ6). Put plainly: In vitro assay PDE10a (rat recombinant PDE10a, SPA). To be noted: 60 nM cAMP, 60 min at rt, read-out: rPDE10a2 IC50. It is filed as biochemical. Put shortly:
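Rat PDE10a expressed in Sf9 cells (baculovirus) and Ni-sepharose purified. Incubated with compound for 60 min at rt in 50 mM Tris pH 7.8, 8.3 mM MgCl2, 1.7 mM EGTA with 60 nM cAMP plus 0.008 μCi ^3H-cAMP (final), 1% DMSO. Read-out by PDE SPA bead scintillation counting (cpm), no-enzyme blank.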

Data set [2] addresses Human recombinant PDE10A2 (Homo sapiens (Human), UniProt Q9Y233). As to the kind of experiment: In vitro hPDE10a (human recombinant PDE10A2, scintillation proximity assay). To be noted: human recombinant PDE10A2, 60 nM cAMP, 60 min at room temperature; read-out: hPDE10a2 IC50. The format is biochemical.
Data set [3] can be described thus: PDE10a-perfused brain permeability study (plasma and brain concentrations). To be noted: male, Sprague-Dawley, rat; for Kp at 2 h: brain/plasma.
Description: Drug administration by oral gavage, subcutaneous injection or intravenous was carried out using male Sprague Dawley rats under IACUC protocol (SH-MET3010). Male Sprague Dawley rats (Charles River) ˜300-350 g were maintained on a 4% standard rodent diet (Test Diet 5001). They are allowed ad libitum access to water and food. Room temperature was maintained at 64° F. and humidity at 30-70%.
Three animals per compound were provided a dose of 2 mg/mL in 20% HpbCD/Tris pH 8 by tail i.v. or 30 mpk p.o. or s.c. in 20% HpbCD/Tris pH 8, with PDE10a antagonists. A first blood sample was collected at 30 min via retro-orbital sinus (anesthetic by 70% CO2/30% O2) into heparinzed plasma separator tubes. The blood was centrifuged and 100 uL plasma was placed into a 96 well plate and saved on dry ice.
After the 120 min, the final blood sample was collected via retro-orbital sinus under anesthesia by IP 0.5 cc injection of a 4/1 mixture of Ketaset: AnaSed [(prepared 10 mL Ketaset (100 mg/mL Ketamine)+2.5 mL AnaSed (20 mg/mL Xylazine)]. The rats were then perfused with 400 mL heparinized saline (10,000 units/L) through the left ventricle of the heart; the brains were then removed (not including the medulla), weighed and homogenized in PBS (4 mL/g tissue). The samples were stored at −80° C. and submitted for chemical analysis of blood and brain concentrations. Endpoints of sample analysis consists of the plasma concentrations at 30 and 120 min, plus brain concentrations at 120 min.

Molecules are shown by their SMILES. Structures can show the parent of a compound that is named as a salt.

Chain of Human recombinant PDE10A2 (Q9Y233 267-1055): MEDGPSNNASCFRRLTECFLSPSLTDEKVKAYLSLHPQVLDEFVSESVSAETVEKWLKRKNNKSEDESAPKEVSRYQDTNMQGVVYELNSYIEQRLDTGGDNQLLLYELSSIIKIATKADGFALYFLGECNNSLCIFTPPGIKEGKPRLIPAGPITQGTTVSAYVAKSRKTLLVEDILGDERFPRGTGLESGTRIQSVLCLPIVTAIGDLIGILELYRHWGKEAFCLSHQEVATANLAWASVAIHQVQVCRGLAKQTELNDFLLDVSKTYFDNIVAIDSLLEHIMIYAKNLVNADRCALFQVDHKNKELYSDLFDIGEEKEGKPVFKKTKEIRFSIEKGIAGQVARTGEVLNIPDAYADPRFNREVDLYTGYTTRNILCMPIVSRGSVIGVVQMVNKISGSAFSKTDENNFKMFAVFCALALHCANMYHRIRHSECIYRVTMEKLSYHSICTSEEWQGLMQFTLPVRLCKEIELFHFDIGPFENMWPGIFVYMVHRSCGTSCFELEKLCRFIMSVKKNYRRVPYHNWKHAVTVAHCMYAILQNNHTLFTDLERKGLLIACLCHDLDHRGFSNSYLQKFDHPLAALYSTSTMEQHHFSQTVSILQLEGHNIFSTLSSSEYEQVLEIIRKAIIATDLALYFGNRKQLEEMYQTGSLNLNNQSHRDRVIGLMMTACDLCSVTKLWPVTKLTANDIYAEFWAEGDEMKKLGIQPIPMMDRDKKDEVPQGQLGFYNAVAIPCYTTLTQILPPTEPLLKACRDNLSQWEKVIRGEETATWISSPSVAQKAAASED
Chain of Rat recombinant PDE10a (rPDE10a) (Q9QYJ6 whole entry): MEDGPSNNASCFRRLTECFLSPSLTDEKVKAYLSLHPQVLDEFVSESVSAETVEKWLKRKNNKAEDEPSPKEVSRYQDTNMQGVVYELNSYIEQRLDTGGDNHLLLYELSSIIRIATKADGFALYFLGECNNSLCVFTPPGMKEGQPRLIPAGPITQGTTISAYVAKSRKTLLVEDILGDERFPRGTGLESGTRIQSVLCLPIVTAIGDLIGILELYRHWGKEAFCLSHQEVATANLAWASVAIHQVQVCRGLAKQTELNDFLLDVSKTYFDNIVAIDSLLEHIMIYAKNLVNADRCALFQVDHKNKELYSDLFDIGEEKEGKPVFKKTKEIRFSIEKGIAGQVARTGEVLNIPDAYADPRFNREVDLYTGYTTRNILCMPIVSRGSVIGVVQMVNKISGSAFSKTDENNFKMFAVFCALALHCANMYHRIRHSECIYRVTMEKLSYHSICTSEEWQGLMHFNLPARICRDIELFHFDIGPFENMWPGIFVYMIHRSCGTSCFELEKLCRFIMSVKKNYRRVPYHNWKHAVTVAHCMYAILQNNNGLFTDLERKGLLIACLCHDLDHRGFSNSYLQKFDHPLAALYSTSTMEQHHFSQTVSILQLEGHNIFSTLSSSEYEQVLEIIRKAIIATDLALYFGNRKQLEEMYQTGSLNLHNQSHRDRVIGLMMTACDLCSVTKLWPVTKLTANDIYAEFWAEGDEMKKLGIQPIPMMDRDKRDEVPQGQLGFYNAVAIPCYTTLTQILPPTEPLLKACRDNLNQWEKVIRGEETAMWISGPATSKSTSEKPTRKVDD

With `O=C(O)C1CCN(c2ccc(-c3cnc(N4CCOCC4)c4nc(/C=C/c5ccc6ccccc6n5)cn34)cc2)CC1` [Cpd 14, (E)-1-(4-(8-Morpholino-2-(2-(quinolin-2-yl)vinyl)imidazo[1,2-a]pyrazin-5-yl)phenyl)piperidine-4-carboxylic acid trifluoroacetic acid salt], the results for the IC50 in data set [1] and in data set [2] were 11 nM and 6 nM, respectively. In addition, the results for the concentration at 2 h in data set [3] (brain) and in data set [3] (plasma) were 35.5 ng/g and 0.503 µg/mL, respectively. The concentration ratio (Kp) at 2 h in data set [3] is 0.07.

Consider `O=C(O)c1ccc(-c2cnc(N3CCOCC3)c3nc(/C=C/c4ccc5ccccc5n4)cn23)cc1` [Cpd 16, (E)-4-(8-morpholino-2-(2-(quinolin-2-yl)vinyl)imidazo[1,2-a]pyrazin-5-yl)benzoic acid trifluoroacetic acid salt], for which the concentration at 2 h in data set [3] (brain) turned out to be 0 ng/g; in data set [3] (plasma) it was 0.142 µg/mL. In addition, in data set [3], the Kp at 2 h was 0.

For `O=c1[nH]nnn1-c1ccc(-c2cnc(N3CCOCC3)c3nc(/C=C/c4ccc5ccccc5n4)cn23)cc1` [Cpd 55, (E)-1-(4-(8-Morpholino-2-(2-(quinolin-2-yl)vinyl)imidazo[1,2-a]pyrazin-5-yl)phenyl)-1H-tetrazol-5(4H)-one], the concentration at 2 h in data set [3] (brain) came to 0 ng/g; in data set [3] (plasma) it was 0.118 µg/mL. For the same compound, the concentration ratio (Kp) at 2 h in data set [3] was determined as 0.

On to `CC(=O)NS(=O)(=O)c1ccc(-c2cnc(N3CCOCC3)c3nc(CCc4ccc5ccccc5n4)cn23)cc1` [Cpd 63, N-((4-(8-Morpholino-2-(2-(quinolin-2-yl)ethyl)imidazo[1,2-a]pyrazin-5-yl)phenyl)sulfonyl)acetamide], for which, in data set [1], the IC50 is under 1 nM. Further, the concentration at 2 h in data set [3] (brain) was found to be 0 ng/g; in data set [3] (plasma), 0.002 µg/mL. This compound also gave a Kp at 2 h in data set [3] of 0.

For `CC(=O)NS(=O)(=O)c1ccc(-c2cnc(N3CCOCC3)c3nc(/C=C/c4ccc5ccccc5n4)cn23)cc1` [Cpd 69, (E)-N-(4-(8-Morpholino-2-(2-(quinolin-2-yl)vinyl)imidazo[1,2-a]pyrazin-5-yl)phenylsulfonyl)acetamide trifluoroacetic acid salt], the concentration for half-maximal inhibition (IC50) in data set [1] and in data set [2] was 4 nM throughout. The concentration at 2 h came out at 36.1 ng/g in data set [3] (brain) and 0.0736 µg/mL in data set [3] (plasma). In data set [3], this compound returned a Kp at 2 h of 1.

Take `O=c1[nH]c(-c2ccc(-c3cnc(N4CCOCC4)c4nc(CCc5ccc6ccccc6n5)cn34)cn2)no1` [Cpd 74, 3-[5-[8-(Morpholin-4-yl)-2-[2-(quinolin-2-yl)ethyl]imidazo[1,2-a]pyrazin-5-yl]pyridin-2-yl]-4,5-dihydro-1,2,4-oxadiazol-5-one]: the IC50 in data set [1] is under 1 nM; in data set [2] it was 1 nM. Also, the results for the concentration at 2 h in data set [3] (brain) and in data set [3] (plasma) were 0 ng/g and 0.058 µg/mL, respectively. Besides, the Kp at 2 h in data set [3] stood at 0.

As to `CS(=O)(=O)NC(=O)c1ccc(-c2cnc(N3CCOCC3)c3nc(COc4ccc5ccccc5n4)cn23)cn1` [Cpd 76, N-Methanesulfonyl-5-[8-(morpholin-4-yl)-2-[(quinolin-2-yloxy)methyl]imidazo[1,2-a]pyrazin-5-yl]pyridine-2-carboxamide], the figures for the 50% inhibitory concentration (IC50) in data set [1] and in data set [2] were 3 nM and 2 nM, respectively. In addition, the concentration at 2 h came out at 0 ng/g in data set [3] (brain) and 0.115 µg/mL in data set [3] (plasma). The same compound displayed a Kp at 2 h in data set [3] of 0.

For the compound `C(=C\c1cn2c(-c3ccc(-c4nnc[nH]4)nc3)cnc(N3CCOCC3)c2n1)/c1ccc2ccccc2n1` [Cpd 91, (E)-4-(5-(6-(2H-1,2,4-Triazol-3-yl)pyridin-3-yl)-2-(2-(quinolin-2-yl)vinyl)imidazo[1,2-a]pyrazin-8-yl)morpholine], the IC50 in data set [1] turned out to be 3 nM; in data set [2] it was 12 nM. Moreover, the results for the concentration at 2 h in data set [3] (brain) and in data set [3] (plasma) were 112 ng/g and 0.209 µg/mL, respectively. The same compound displayed a Kp at 2 h in data set [3] of 0.55.

Consider `c1ccc2nc(OCc3cn4c(-c5ccc(Sc6cnn[nH]6)nc5)cnc(N5CCOCC5)c4n3)ccc2c1` [Cpd 92, 4-(5-(6-((1H-1,2,3-Triazol-5-yl)thio)pyridin-3-yl)-2-((quinolin-2-yloxy)methyl)imidazo[1,2-a]pyrazin-8-yl)morpholine], for which the results for the half-inhibitory concentration (IC50) in data set [1] and in data set [2] were 3 nM and 6 nM, respectively. Further, the concentration at 2 h in data set [3] (brain) turned out to be 78.3 ng/g; in data set [3] (plasma), 0.135 µg/mL. In data set [3], the partition ratio (Kp) at 2 h is 0.77.

For `C(=C\c1cn2c(-c3cnc4nc[nH]c4c3)cnc(N3CCOCC3)c2n1)/c1ccc2ccccc2n1` [Cpd 93, (E)-4-(5-(3H-Imidazo[4,5-b]pyridin-6-yl)-2-(2-(quinolin-2-yl)vinyl)imidazo[1,2-a]pyrazin-8-yl)morpholine], the values for the IC50 in data set [1] and in data set [2] were 10 nM and 13 nM, respectively. Further, the concentration at 2 h turned out to be 0 ng/g in data set [3] (brain) and 0.098 µg/mL in data set [3] (plasma). Also, in data set [3], the concentration ratio (Kp) at 2 h worked out at 0.

As for `O=c1[nH]c(-c2ccc(-c3cnc(N4CCOCC4)c4nc(/C=C/c5ccc6ccccc6n5)cn34)cn2)no1` [Cpd 95, (E)-3-(5-(8-Morpholino-2-(2-(quinolin-2-yl)vinyl)imidazo[1,2-a]pyrazin-5-yl)pyridin-2-yl)-1,2,4-oxadiazol-5-ol], the 50% inhibitory concentration (IC50) in data set [1] is under 1 nM; in data set [2], 5 nM. Moreover, the values for the concentration at 2 h in data set [3] (brain) and in data set [3] (plasma) were 0 ng/g and 0.113 µg/mL, respectively. Besides, the Kp at 2 h in data set [3] was found to be 0.

In the case of `c1ccc2nc(OCc3cn4c(-c5ccc(-c6nnn[nH]6)nc5)cnc(N5CCOCC5)c4n3)ccc2c1` [Cpd 97, 4-(5-(6-(1H-Tetrazol-5-yl)pyridin-3-yl)-2-((quinolin-2-yloxy)methyl)imidazo[1,2-a]pyrazin-8-yl)morpholine], the half-inhibitory concentration (IC50) in data set [1] and in data set [2] was 1 nM each time. Besides, the concentration at 2 h was determined as 0 ng/g in data set [3] (brain) and 0.084 µg/mL in data set [3] (plasma). The same compound returned a partition ratio (Kp) at 2 h in data set [3] of 0.

On to `O=C(O)CNc1ccc(-c2cnc(N3CCOCC3)c3nc(COc4ccc5ccccc5n4)cn23)cn1` [Cpd 107, 2-((5-(8-Morpholino-2-((quinolin-2-yloxy)methyl)imidazo[1,2-a]pyrazin-5-yl)pyridin-2-yl)amino)acetic acid trifluoroacetic acid salt], for which the IC50 in data set [1] and in data set [2] was 2 nM each time. Further, the concentration at 2 h came to 0 ng/g in data set [3] (brain) and 0.0225 µg/mL in data set [3] (plasma). This compound also gave a concentration ratio (Kp) at 2 h in data set [3] of 0.

Take `NS(=O)(=O)N1CCC(c2cnc(N3CCOCC3)c3nc(COc4ccc5ccccc5n4)cn23)CC1` [Cpd 109, 4-(8-Morpholino-2-((quinolin-2-yloxy)methyl)imidazo[1,2-a]pyrazin-5-yl)piperidine-1-sulfonamide trifluoroacetic acid salt]: the concentration for half-maximal inhibition (IC50) in data set [1] came out at 87 nM; in data set [2], 110 nM. Further, the concentration at 2 h was 8.15 ng/g in data set [3] (brain) and 0.226 µg/mL in data set [3] (plasma). This compound had a Kp at 2 h in data set [3] of 0.03.

In the case of `O=C(O)CN1CCC(c2cnc(N3CCOCC3)c3nc(COc4ccc5ccccc5n4)cn23)CC1` [Cpd 110, 2-(4-(8-Morpholino-2-((quinolin-2-yloxy)methyl)imidazo[1,2-a]pyrazin-5-yl)piperidin-1-yl)acetic acid trifluoroacetic acid salt], the concentration for half-maximal inhibition (IC50) is 288 nM in data set [1] and 407 nM in data set [2]. Also, the concentration at 2 h in data set [3] (brain) was 0 ng/g; in data set [3] (plasma), 0.00463 µg/mL. In data set [3], this compound came in with a concentration ratio (Kp) at 2 h of 0.

As to `c1ccc2nc(OCc3cn4c(-c5ccc(N6CCNCC6)nc5)cnc(-c5ccc6nc[nH]c6c5)c4n3)ccc2c1` [Cpd 119, 2-((8-(1H-Benzo[d]imidazol-6-yl)-5-(6-(piperazin-1-yl)pyridin-3-yl)imidazo[1,2-a]pyrazin-2-yl)methoxy)quinoline trifluoroacetic acid salt], the half-inhibitory concentration (IC50) in data set [1] worked out at 26 nM; in data set [2], 54 nM. Moreover, the concentration at 2 h in data set [3] (brain) is 108 ng/g; in data set [3] (plasma), 0.0538 µg/mL. For the same compound, the Kp at 2 h in data set [3] amounted to 2.99.

For the compound `c1ccc2nc(OCc3cn4c(-c5cnc(N6CCNCC6)nc5)cnc(N5CCOCC5)c4n3)ccc2c1` [Cpd 121, 4-(5-(2-(Piperazin-1-yl)pyrimidin-5-yl)-2-((quinolin-2-yloxy)methyl)imidazo[1,2-a]pyrazin-8-yl)morpholine methane sulfonic acid salt], the IC50 in data set [1] came to 83 nM; in data set [2], 59 nM. Also, the concentration at 2 h in data set [3] (brain) was determined as 81.5 ng/g; in data set [3] (plasma), 0.0551 µg/mL. This compound returned a Kp at 2 h in data set [3] of 1.55.

As for `Nc1ccc(-c2cnc(N3CCOCC3)c3nc(COc4ccc5ccccc5n4)cn23)cn1` [Cpd 122, 5-(8-Morpholino-2-((quinolin-2-yloxy)methyl)imidazo[1,2-a]pyrazin-5-yl)pyridin-2-amine methane sulfonic acid salt], in data set [1], the IC50 was 8 nM. Besides, the figures for the concentration at 2 h in data set [3] (brain) and in data set [3] (plasma) were 98.2 ng/g and 0.0356 µg/mL, respectively.

For `O=C(Nc1cn2c(-c3ccc(N4CCNCC4)nc3)cnc(N3CCOCC3)c2n1)c1ccc2ccccc2n1` [Cpd 125, N-(8-Morpholino-5-(6-(piperazin-1-yl)pyridin-3-yl)imidazo[1,2-a]pyrazin-2-yl)quinoline-2-carboxamide hydrochloric acid salt], the 50% inhibitory concentration (IC50) in data set [1] stood at 339 nM; in data set [2], 309 nM. In addition, the concentration at 2 h was found to be 54.9 ng/g in data set [3] (brain) and 0.0459 µg/mL in data set [3] (plasma). Also, the Kp at 2 h in data set [3] was found to be 1.2.

Consider `c1ccc2nc(OCc3cn4c(-c5ccc(N6CCNCC6)nc5)cnc(C5CCOCC5)c4n3)ccc2c1` [compound 83, 2-((5-(6-(piperazin-1-yl)pyridin-3-yl)-8-(tetrahydro-2H-pyran-4-yl)imidazo[1,2-a]pyrazin-2-yl)methoxy)quinoline trifluoroacetic acid salt], for which the 50% inhibitory concentration (IC50) in data set [1] was 269 nM; in data set [2], 316 nM.
